Paper PMC4051119, “Bacterial actin MreB forms antiparallel double filaments” (eLife, 2014)
Where “and” joins values, the source holds several entries; their conditions need not be identical. Equal entries are not always repeated. Where two headings read alike, the source gives them in different places.

Tests used:
ΔCcMreBdh = molecular target: T1, ΔCcMreBdh (Caulobacter vibrioides, UniProt A0A0H3C7V4, F102S/V103G); experiment: Isothermal titration calorimetry of nucleotides and MP265 binding to MreB; parameters: species or system Caulobacter crescentus; conditions: ITC
T1 construct: added initiator Met (M before I9) (N); made in house; host or cells: E. coli C41(DE3) (printed for the sister construct ΔCcMreBh)
Method: […] Samples were stored by the instrument in 96-well microtitre plates at 5°C prior to loading and performing the ITC titrations. […] Heat from the pre-injection was not used during fitting. Data were analysed manually in the Origin software package provided by the manufacturer and fit to a single set of binding sites model. […] The small endothermic heats of each injection in these experiments were fitted to a simple linear function that was subsequently subtracted from the equivalent integrated heats of the experiment when protein was present.

cell morphology = system: cell morphology; parameters: method as in earlier work; conditions: ref Iwai et al., 2002; Gitai et al., 2005; Bean et al., 2009; Takacs et al., 2010; cited from earlier work
[1] = 25°C, ligand titrated into ΔCcMreBdh alone
[2] = 25°C, ligand titrated into ΔCcMreBdh alone, read-out: Kd

T1 sequence (A0A0H3C7V4 9-347 F102S/V103G): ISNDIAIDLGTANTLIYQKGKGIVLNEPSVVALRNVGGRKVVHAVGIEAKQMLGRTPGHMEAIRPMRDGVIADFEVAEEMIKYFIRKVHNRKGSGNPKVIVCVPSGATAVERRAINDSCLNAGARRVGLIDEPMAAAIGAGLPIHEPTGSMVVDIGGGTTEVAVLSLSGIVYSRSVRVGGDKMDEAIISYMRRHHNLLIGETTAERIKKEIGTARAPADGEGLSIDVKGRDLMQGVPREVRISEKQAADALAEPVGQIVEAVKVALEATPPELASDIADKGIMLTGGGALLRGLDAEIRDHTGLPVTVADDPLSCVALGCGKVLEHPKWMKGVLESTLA

| Structure (SMILES) | ΔH (ΔCcMreBdh; [1]) [kcal/mol] | Kd (ΔCcMreBdh; [2]) | effect on cell morphology (cell morphology) | also measured |
| --- | --- | --- | --- | --- |
| Nc1ncnc2c1ncn2[C@@H]1O[C@H](CO[P@](=O)(O)O[P@](=O)(O)O[P@@](=O)(O)S)[C@@H](O)[C@H]1O [ATPγS] | -7.7 |  |  | Kd (ΔCcMreBdh; Kd, 25°C, ligand titrated into ΔCcMreBdh alone): ~4.6 µM and 4.5 µM |
| Nc1ncnc2c1ncn2[C@@H]1O[C@H](COP(=O)(O)OP(=O)(O)OP(=O)(O)O)[C@@H](O)[C@H]1O [ATP] | -6.0 | ~1 µM and 1 µM |  |  |
| N=C(N)SCc1ccc(Cl)cc1 [MP265] |  | ~27 µM and 26 µM and 27 µM | perturb cell morphology reminiscent of an MreB knock-out | Kd (ΔCcMreBdh; 15°C, in the presence of 0.5 mM ADP, data not shown, read-out: affinity (Kd)): 0.6 µM; Kd (ΔCcMreBdh; 15°C, in the presence of 0.5 mM AMPPNP, data not shown, read-out: affinity (Kd)): 0.7 µM; Kd (ΔCcMreBdh; 15°C, ΔCcMreBdh alone, data not shown, read-out: affinity (Kd)): 19 µM; ΔH (ΔCcMreBdh; 25°C, in the presence of 0.5 mM ADP): -12 kcal/mol; Kd (ΔCcMreBdh; 25°C, in the presence of 0.5 mM ADP, read-out: Kd): 1.3 µM; ΔH (ΔCcMreBdh; 25°C, in the presence of 0.5 mM AMPPNP): -11 kcal/mol; Kd (ΔCcMreBdh; 25°C, in the presence of 0.5 mM AMPPNP, read-out: Kd): 1.7 µM; increase of binding affinity in the presence of di- and trinucleotide phosphates (ΔCcMreBdh; with nucleotide versus ΔCcMreBdh alone): 20–30 fold |
| Nc1ncnc2c1ncn2[C@@H]1O[C@H](COP(=O)(O)OP(=O)(O)O)[C@@H](O)[C@H]1O [ADP] | -5.3 | ~4 µM and 4 µM |  |  |
| Nc1ncnc2c1ncn2[C@@H]1O[C@H](COP(=O)(O)OP(=O)(O)NP(=O)(O)O)[C@@H](O)[C@H]1O [AMPPNP] | -4.4 | ~65 µM and 65 µM |  |  |
| N=C(N)SCc1ccc(Cl)c(Cl)c1 [A22, S-(3,4-dichlorobenzyl) isothiourea] |  |  | perturb cell morphology reminiscent of an MreB knock-out |  |
